Measurements published in patent US8227508B2, “Dietary and pharmaceutical compositions containing carnosol and/or rosmanol and their uses” (DSM IP Assets B.V., priority 2006, dated 2012).

Key:
[1] = molecular target: T1, human dopamine transporter (hDAT) (Homo sapiens, UniProt Q01959); assay: cell-based; conditions: transfected CHO-K1 cells, 50 nM [3H]-dopamine; read-out: IC50, inhibition of dopamine reuptake
T1 construct: expressed in transfected cells; host or cells: CHO-K1
Method: Specific signal was determined in the presence of 10 μM nomifensine (dopamine reuptake inhibitor). Cells were then solubilised with 1% SDS lysis buffer.

[2] = molecular target: T2, human noradrenaline transporter (hNAT) (Homo sapiens, UniProt P23975); assay: Noradrenaline uptake inhibition in MDCK cells expressing hNAT; type: cell-based
T2 construct: expressed in transfected cells; host or cells: MDCK
T2 sequence (P23975 whole entry): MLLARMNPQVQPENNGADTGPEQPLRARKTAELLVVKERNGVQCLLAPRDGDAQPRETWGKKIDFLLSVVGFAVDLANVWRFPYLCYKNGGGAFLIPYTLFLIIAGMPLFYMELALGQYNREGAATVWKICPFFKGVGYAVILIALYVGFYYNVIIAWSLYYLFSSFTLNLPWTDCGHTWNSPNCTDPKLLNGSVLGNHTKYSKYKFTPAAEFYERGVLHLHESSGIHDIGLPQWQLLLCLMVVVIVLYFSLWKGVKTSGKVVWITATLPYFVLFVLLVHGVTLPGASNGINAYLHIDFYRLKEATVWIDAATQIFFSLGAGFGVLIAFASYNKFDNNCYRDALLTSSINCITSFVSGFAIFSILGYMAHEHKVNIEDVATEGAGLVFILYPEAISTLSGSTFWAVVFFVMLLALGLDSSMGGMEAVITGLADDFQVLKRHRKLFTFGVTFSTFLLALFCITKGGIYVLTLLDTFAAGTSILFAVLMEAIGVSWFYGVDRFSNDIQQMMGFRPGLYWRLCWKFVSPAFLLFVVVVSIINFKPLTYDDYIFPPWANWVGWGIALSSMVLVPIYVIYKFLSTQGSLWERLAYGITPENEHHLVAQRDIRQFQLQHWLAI
Method: Madin Darby canine kidney (MDCK) cells, stably expressing the human noradrenaline transporter (hNAT), were plated one day before the assay. […] Cells in each well were then rinsed twice, solubilised with 1% SDS lysis buffer and the lysate was analysed to determine [^3H]-noradrenaline uptake. […] Reduction of [^3H]-noradrenaline uptake by 50 percent or more (≧50%) relative to vehicle controls indicated significant inhibitory activity.

[3] = molecular target: T3, human calcitonin gene-related peptide (hCGRP) receptor (Homo sapiens, UniProt O60894+Q16602); assay: CGRP receptor radioligand binding assay; conditions: 0.03 nM [125I]h-CGRPα, CHO cell membranes, read-out: percentage inhibition of control radioligand specific binding to hCGRP receptor
T3 construct: expressed in transfected cells; host or cells: CHO (membrane homogenates)
T3 sequence (Q16602 23-461): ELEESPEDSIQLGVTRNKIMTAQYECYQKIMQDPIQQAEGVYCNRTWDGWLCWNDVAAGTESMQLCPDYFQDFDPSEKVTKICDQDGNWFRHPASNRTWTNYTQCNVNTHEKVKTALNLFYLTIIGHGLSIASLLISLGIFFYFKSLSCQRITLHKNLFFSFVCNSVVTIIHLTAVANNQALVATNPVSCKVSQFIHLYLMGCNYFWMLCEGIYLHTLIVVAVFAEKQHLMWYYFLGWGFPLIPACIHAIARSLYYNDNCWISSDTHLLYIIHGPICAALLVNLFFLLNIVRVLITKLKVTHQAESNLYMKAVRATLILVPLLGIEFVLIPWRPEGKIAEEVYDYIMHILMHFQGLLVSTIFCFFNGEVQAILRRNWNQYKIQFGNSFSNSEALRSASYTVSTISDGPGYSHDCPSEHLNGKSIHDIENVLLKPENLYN
T3 sequence (O60894 27-148): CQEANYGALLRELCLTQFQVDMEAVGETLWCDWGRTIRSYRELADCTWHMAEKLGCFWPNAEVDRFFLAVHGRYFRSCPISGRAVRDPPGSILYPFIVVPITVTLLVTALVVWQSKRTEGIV
Method: The effect of carnosol on the agonist site of the human calcitonin gene-related peptide (hCGRP) receptor in transfected CHO cells was investigated using a radioligand binding assay adapted from that described by Aiyar et al. (1996, J. Biol. Chem., 271: 11325-11329).
Briefly, cell membrane homogenates (10 μg protein) were incubated for 90 min at 22° C. with 0.03 nM [^125I]h-CGRPα in the absence or presence of carnosol (10 μM) in a buffer containing 50 mM HEPES-NaOH (pH 7.4), 10 mM MgCl2, 4 mM KCl, 10 mM NaCl, 1 mM EDTA, 1 μM phosphoramidon, 0.3% BSA and 0.04% bacitracine. Non-specific binding was determined in the presence of 1 μM h-CGRPα. Following incubation, the samples were filtered rapidly under vacuum through glass fibre filters (GF/B, Packard) pre-soaked with 0.3% polyethyleneimine (PEI) and rinsed several times with ice-cold 50 mM Tris-HCl using a 96-sample cell harvester (Unifilter, Packard). The filters were dried then counted for radioactivity in a scintillation counter (Topcount, Packard) using a scintillation cocktail (Microscint 0, Packard). The results are expressed as percentage inhibition of the control radioligand specific binding. The standard reference compound used was h-CGRPα, the natural agonist of the hCGRP receptor.

[4] = molecular target: human recombinant acetylcholinesterase (Homo sapiens, UniProt P22303); assay: Acetylcholinesterase inhibition (Ellman method); type: biochemical; conditions: substrate AMTCh 50 μM, read-out: percentage inhibition of acetylcholinesterase activity
human recombinant acetylcholinesterase, sequence (P22303 32-614): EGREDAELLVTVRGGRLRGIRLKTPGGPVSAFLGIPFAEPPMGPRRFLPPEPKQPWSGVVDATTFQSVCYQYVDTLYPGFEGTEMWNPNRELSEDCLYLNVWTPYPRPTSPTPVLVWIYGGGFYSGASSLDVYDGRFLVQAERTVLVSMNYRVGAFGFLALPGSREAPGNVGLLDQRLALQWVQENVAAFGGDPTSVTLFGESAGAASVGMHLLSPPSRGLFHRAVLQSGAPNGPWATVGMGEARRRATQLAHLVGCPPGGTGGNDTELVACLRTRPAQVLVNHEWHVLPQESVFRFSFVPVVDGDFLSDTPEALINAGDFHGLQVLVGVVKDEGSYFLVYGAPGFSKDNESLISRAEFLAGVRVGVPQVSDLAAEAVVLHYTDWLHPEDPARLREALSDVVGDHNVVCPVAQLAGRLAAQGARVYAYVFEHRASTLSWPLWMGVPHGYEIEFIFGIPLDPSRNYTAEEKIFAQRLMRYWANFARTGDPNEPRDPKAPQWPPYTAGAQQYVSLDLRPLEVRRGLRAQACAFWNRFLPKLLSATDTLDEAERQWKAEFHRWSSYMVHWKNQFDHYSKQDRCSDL
Method: The effect of carnosol on human recombinant acetylcholinesterase activity was quantified by measuring the formation of 5-thio-2-nitrobenzoic acid from acetyl-6-methylthiocholine (AMTCh), as adapted from Ellman et al. (1961, Biochem. Pharmacol., 7: 88-90). Briefly, carnosol (10 μM), reference compound or water (control) were added to a buffer containing 200 mM NaH2PO4/Na2HPO4 (pH 8.0), 5 mg/ml (NH4)2SO4, 0.4 mM DTNB and 5 mU enzyme. The enzymatic reaction was then initiated by the addition of the substrate AMTCh at 50 μM. The absorbance was measured immediately (t=0) at λ=405 nm using a microplate reader (MRX, Dynatech or Ultra, Tecan). This measurement was used to detect any compound interference with the spectrophotometric detection at this wavelength. After 30 min incubation at 37° C. (t=30), a second measurement of the absorbance was made at λ=405 nm. The enzyme activity was determined by subtracting the signal measured at t=0 from that measured at t=30. The results are expressed as percentage inhibition of the control enzyme activity. The standard inhibitory reference compound used was neostigmine, tested in each experiment at several concentrations to obtain an inhibition curve from which its IC50 value was calculated.

mouse [5] = assay: Porsolt's Forced Swim Test (FST); type: in vivo
Method: The Forced Swim Test (FST) was first reported in 1977 for screening of antidepressant-like compounds in rats (Porsolt et al 1977 Nature, 266:730-732) and, later, modified for testing mice (Porsolt et al 1977 Arch. Int. Pharmacodynamie, 229:327-336).
In two separate experiments, mice were tested following either i.p. or p.o. administration of carnosol. Mice were individually placed in a cylinder containing water (22° C.) from which they could not escape. The mice were placed in the water for 6 min and the duration of immobility during the last 4 min was measured. Ten to fifteen mice were studied per group. Carnosol was evaluated at 3, 10, 30 mg/kg body weight (i.p. 30 min before the test) or 200, 400, 600 mg/kg body weight (p.o., 24, 5 and 1 h before the test), and compared with vehicle control groups. Imipramine (32 mg/kg i.p., or p.o., respectively), administered under the same experimental conditions, was used as reference substance. Immobility and swimming time were assessed.

mouse [6] = assay: Four Plates Test; type: in vivo; conditions: −5 h and −1 h
Excerpt: The method, which detects anxiolytic activity, follows that described by Aron et al (1971, Neuropharmacology, 10:459-469). Anxiolytics (benzodiazepines) increase the number of punished crossings. Animals were placed individually in a white plastic enclosure containing a floor consisting of 4 metal plates connected to an electric shock generator (Apelex: type 011346). Each mouse was left to explore freely for 15 seconds. Then, every time it crossed from one plate to another, it received a weak electric shock (2.5 mA, 1.5 s). The number of punished crossings was counted during a 1 minute test. 15 mice were studied per group. The test was performed blind.
Carnosol was evaluated at 3 doses (200, 400, 600 mg/kg), administered p.o. 24 h, 5 h and 1 h before the test, and compared with a vehicle control (corn oil) group.
Clobazam (32 mg/kg p.o.), administered 1 h before the test, was used as reference substance. Mice in this group received additional administrations of vehicle at 24 h and 5 h before the test in order to maintain experimental blinding.

T1 sequence (Q01959 whole entry): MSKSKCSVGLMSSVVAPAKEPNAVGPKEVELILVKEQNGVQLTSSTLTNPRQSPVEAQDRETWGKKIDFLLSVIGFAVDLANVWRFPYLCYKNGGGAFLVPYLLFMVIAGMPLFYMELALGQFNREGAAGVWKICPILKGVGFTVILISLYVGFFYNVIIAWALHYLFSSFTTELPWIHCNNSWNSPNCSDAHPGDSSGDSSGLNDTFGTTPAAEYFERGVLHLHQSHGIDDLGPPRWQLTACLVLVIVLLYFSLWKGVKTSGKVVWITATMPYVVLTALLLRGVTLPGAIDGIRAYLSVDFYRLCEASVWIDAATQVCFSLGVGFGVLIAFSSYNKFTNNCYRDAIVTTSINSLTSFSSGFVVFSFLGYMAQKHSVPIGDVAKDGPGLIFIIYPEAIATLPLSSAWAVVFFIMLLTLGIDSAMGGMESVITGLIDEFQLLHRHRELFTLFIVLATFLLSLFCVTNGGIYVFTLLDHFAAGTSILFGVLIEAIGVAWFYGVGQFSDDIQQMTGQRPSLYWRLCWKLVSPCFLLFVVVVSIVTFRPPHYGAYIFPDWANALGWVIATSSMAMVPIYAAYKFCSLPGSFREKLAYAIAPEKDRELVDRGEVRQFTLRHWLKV

## CC(C)c1cc2c(c(O)c1O)[C@@]13CCCC(C)(C)[C@@H]1C[C@@H]2OC3=O [Carnosol, carnosol]
[1]
  IC50: 10.3 µM
[2]
  IC50: 30.6 µM
[3]
  inhibition at 10 µM: 54%
[4]
  inhibition at 10 µM: 53%
Mouse [5]; 3 mg/kg i.p., −30 min
  Duration of immobility (% change from control): −26%
Mouse [5]; 10 mg/kg i.p., −30 min
  Duration of immobility (% change from control): −21%
Mouse [5]; 30 mg/kg i.p., −30 min
  Duration of immobility (% change from control): −18%
Mouse [5]; 200 mg/kg p.o., −24, −5, −1 h
  Duration of immobility (% change from control): −9%
Mouse [5]; 400 mg/kg p.o., −24, −5, −1 h
  Duration of immobility (% change from control): −53%
Mouse [5]; 600 mg/kg p.o., −24, −5, −1 h
  Duration of immobility (% change from control): −3%
Mouse [6]; 200 mg/kg p.o. −24 h
  Number of punished crossings, mean: 3.5
Mouse [6]; 400 mg/kg p.o. −24 h
  Number of punished crossings, mean: 3.7
Mouse [6]; 600 mg/kg p.o. −24 h
  Number of punished crossings, mean: 3.1
